Source: ChEMBL document CHEMBL1201862, “PubChem BioAssay data set” (2004)
The source made the active and inactive calls.

What was measured:
[1] = microbe, parasite or virus in culture; format: functional; conditions: Mycobacterium tuberculosis
[2] = molecular target: T1, Ubiquitin-conjugating enzyme E2 N (Homo sapiens, UniProt P61088); format: functional;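 note: Dose-response confirmation in a TR-FRET assay detecting UBC13-driven polyubiquitin chain formation, inhibition measured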
T1 sequence (P61088 whole entry): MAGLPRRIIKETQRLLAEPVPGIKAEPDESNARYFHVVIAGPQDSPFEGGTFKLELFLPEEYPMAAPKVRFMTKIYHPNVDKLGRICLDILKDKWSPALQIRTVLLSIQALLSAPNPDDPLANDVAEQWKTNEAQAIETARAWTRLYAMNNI

Vero [3] = assay: cells; format: functional; conditions: Chlorocebus sabaeus
Vero [4] = assay: cells; format: functional, cell-based; conditions: Chlorocebus sabaeus
[5] = Counterscreen for AddAB inhibitors: absorbance-based bacterial cell-based high throughput dose response assay for inhibitors of bacterial viability. [Related pubchem assays (depositor defined):AID435030, AID449728, AID449731, AID488942, AID488955, AID488956]; format: functional
Exodeoxyribonuclease V = molecular target: T2, Exodeoxyribonuclease V (Escherichia coli (strain K12), UniProt P04993+P07648+P08394); assay: RecBCD inhibition via phage-restricted bacterial growth – absorbance, V66 E. coli, mutant T4 phage, counter-screen for AddAB inhibitor project, dose response (AID 492957); format: functional, cell-based, Escherichia coli str. K-12 substr. MG1655
T2 sequence (P04993 whole entry): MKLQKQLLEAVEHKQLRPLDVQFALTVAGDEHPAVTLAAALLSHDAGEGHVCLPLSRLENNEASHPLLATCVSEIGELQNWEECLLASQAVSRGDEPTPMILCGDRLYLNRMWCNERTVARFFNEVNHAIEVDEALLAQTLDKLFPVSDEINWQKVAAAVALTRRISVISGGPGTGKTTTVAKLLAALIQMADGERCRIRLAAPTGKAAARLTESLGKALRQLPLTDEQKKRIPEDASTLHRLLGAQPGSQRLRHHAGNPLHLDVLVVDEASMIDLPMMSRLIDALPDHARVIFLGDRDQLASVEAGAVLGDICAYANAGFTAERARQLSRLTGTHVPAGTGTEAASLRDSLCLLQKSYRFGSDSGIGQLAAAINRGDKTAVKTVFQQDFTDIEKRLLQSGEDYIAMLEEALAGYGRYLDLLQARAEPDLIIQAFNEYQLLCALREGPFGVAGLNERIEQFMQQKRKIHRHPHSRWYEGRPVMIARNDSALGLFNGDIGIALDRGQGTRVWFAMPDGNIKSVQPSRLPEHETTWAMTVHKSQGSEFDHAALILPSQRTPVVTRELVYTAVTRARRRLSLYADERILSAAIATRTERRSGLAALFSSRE
T2 sequence (P07648 whole entry): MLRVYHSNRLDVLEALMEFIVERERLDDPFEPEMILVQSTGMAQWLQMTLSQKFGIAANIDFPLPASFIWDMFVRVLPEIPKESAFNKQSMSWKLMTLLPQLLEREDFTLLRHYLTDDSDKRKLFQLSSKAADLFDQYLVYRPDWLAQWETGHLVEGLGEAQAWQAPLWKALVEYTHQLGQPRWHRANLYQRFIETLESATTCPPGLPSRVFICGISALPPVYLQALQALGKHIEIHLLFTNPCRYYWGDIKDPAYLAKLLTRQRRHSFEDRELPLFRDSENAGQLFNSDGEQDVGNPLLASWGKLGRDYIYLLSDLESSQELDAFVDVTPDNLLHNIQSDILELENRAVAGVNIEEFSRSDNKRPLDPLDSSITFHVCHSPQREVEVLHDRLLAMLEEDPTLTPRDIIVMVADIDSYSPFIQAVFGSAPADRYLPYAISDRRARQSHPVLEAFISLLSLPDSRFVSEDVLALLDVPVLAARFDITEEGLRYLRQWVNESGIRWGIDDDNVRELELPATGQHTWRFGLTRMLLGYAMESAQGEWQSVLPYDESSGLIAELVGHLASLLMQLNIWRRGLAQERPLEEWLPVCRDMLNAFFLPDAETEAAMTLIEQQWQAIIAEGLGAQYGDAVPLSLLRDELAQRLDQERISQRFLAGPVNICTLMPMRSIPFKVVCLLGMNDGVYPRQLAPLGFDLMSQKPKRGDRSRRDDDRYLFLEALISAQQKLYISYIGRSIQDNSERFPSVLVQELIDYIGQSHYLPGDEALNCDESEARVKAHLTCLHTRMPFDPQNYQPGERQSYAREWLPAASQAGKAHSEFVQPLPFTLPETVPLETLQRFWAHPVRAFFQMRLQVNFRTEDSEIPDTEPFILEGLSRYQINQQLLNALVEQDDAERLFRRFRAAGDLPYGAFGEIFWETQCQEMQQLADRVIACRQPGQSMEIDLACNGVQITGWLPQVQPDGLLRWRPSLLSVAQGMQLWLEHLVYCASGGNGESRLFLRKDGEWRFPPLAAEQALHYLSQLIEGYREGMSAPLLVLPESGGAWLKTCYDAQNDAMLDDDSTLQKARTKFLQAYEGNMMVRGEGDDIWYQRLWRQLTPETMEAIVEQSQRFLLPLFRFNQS
T2 sequence (P08394 whole entry): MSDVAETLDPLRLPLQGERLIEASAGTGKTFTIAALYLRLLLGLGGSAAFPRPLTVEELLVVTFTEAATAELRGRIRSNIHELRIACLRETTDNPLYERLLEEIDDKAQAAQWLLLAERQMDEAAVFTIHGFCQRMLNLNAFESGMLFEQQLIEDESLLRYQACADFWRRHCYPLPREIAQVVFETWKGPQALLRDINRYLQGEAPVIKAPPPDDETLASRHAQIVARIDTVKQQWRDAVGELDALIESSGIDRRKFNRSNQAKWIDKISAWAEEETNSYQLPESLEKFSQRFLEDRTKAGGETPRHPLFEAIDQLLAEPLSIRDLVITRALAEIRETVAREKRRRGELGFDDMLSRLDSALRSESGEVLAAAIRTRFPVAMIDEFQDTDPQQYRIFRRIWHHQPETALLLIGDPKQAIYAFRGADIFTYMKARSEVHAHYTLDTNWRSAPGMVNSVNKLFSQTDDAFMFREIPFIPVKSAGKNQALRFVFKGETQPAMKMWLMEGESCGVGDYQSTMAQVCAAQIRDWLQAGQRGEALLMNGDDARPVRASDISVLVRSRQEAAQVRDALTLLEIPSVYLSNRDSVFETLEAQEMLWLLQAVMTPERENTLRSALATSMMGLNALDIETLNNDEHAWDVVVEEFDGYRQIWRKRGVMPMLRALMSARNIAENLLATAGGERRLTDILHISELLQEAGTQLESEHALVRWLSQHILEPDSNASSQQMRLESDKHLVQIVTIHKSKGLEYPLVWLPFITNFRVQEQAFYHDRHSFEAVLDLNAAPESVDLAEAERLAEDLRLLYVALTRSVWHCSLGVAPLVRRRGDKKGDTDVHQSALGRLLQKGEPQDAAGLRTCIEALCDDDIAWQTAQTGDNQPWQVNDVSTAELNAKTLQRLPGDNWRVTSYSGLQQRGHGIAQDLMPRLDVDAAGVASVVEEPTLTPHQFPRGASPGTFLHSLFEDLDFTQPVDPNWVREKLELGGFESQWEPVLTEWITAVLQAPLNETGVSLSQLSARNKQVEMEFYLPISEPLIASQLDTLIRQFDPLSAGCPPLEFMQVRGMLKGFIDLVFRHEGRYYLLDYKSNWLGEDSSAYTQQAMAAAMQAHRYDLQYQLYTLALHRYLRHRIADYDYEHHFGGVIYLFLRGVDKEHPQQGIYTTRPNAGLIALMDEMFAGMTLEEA

HEK293 [6] = assay: cells; conditions: Homo sapiens
HEK293 [7] = assay: cells; conditions: Homo sapiens; remark: listed apart in the source
[8] = molecular target: T3, Heat shock factor protein 1 (Mus musculus, UniProt P38532); assay: decrease of HSF1-responsive luciferase luminescence – cell-based, NIH3T3, dose retest, confirmation (AID 2382); format: functional;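 note: NIH3T3 fibroblasts with HSF1-driven luciferase reporter stressed by proteasome inhibitor MG132; luminescence from HSF1-driven luciferase expression after 8 hours of MG132 stress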
T3 sequence (P38532 whole entry): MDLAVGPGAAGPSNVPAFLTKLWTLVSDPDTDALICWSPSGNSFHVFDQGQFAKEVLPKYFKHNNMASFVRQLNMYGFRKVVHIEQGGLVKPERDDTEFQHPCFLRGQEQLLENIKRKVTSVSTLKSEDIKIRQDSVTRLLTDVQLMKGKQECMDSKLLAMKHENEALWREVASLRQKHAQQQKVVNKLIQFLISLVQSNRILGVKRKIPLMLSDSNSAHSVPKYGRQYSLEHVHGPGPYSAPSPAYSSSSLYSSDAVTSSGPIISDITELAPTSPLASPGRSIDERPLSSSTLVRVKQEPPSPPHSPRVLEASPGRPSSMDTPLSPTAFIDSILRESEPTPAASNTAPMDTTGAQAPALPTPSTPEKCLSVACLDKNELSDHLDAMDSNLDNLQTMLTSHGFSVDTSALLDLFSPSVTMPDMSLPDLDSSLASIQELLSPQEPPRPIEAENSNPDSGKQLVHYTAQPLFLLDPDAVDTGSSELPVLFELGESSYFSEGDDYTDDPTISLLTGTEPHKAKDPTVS

[9] = molecular target: T4, Mannose-6-phosphate isomerase (Homo sapiens, UniProt P34949); assay: phosphomannose isomerase inhibition – biochemical, fluorescence intensity, confirmation (AID 1535)
T4 sequence (P34949 whole entry): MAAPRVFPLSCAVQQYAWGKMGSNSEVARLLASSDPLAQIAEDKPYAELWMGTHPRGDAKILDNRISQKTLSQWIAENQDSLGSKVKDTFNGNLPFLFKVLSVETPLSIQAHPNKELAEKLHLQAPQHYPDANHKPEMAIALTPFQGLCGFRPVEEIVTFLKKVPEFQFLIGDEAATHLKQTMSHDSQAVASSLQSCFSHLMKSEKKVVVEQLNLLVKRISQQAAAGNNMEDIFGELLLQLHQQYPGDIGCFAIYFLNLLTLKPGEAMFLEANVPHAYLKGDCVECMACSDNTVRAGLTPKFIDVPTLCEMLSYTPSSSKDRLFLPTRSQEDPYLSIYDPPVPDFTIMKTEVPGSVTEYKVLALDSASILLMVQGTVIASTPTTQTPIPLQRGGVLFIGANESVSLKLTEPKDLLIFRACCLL

[10] = molecular target: T4, Mannose-6-phosphate isomerase; assay: MPI inhibition at elevated mannose 6-phosphate – biochemical, fluorescence intensity, high mannose 6-phosphate, primary screen (AID 1220)
Keap1/Nrf2 = Keap1/Nrf2 (Homo sapiens, UniProt Q14145); assay: disruptors of Keap1 binding to Nrf2 peptide – biochemical, fluorescence polarization, cherry-picked samples, dose response (AID 588683)
Chain of Keap1/Nrf2 (Q16236 whole entry): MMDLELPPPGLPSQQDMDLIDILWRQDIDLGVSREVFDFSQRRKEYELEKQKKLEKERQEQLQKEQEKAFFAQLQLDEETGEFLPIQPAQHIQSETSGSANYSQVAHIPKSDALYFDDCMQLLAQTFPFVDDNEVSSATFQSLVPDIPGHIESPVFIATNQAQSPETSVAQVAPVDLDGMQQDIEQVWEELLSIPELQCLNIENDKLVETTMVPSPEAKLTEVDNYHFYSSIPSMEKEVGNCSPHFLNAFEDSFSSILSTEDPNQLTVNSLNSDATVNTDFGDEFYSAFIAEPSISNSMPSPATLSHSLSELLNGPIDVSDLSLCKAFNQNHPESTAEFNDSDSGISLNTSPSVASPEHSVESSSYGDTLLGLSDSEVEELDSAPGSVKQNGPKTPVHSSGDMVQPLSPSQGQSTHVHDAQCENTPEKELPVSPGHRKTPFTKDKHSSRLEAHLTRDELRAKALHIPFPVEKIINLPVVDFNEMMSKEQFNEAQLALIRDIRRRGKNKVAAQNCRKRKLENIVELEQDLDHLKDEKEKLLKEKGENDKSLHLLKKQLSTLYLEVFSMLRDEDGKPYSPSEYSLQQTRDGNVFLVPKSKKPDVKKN
Chain of Keap1/Nrf2 (Q14145 whole entry): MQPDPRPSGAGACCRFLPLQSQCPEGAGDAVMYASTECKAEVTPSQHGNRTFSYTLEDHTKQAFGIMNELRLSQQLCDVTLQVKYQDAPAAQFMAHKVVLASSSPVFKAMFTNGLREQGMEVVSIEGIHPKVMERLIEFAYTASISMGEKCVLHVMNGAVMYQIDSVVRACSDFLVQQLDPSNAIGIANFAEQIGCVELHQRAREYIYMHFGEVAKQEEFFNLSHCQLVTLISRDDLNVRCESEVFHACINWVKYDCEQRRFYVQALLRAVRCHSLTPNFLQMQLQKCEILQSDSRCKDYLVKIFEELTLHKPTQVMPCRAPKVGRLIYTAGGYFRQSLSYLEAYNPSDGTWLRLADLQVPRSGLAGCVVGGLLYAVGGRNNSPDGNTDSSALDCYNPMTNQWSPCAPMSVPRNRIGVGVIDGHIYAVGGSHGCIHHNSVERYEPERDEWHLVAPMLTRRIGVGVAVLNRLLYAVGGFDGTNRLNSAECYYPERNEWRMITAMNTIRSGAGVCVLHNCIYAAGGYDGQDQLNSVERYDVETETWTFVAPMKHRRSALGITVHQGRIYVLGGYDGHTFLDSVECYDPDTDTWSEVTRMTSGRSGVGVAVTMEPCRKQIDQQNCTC

ORF 73 = molecular target: T5, ORF 73 (Human herpesvirus 8, UniProt O40947); assay: KSHV LANA DNA-binding disruption – biochemical, fluorescence polarization, cherry-picked samples, dose response (AID 504725); parameters: species or system Human gammaherpesvirus 8;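 note: fluorescence polarization of a labeled DNA duplex reporting LANA DNA binding; potency is for inhibitors that block LANA binding to the DNA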
T5 sequence (O40947 whole entry): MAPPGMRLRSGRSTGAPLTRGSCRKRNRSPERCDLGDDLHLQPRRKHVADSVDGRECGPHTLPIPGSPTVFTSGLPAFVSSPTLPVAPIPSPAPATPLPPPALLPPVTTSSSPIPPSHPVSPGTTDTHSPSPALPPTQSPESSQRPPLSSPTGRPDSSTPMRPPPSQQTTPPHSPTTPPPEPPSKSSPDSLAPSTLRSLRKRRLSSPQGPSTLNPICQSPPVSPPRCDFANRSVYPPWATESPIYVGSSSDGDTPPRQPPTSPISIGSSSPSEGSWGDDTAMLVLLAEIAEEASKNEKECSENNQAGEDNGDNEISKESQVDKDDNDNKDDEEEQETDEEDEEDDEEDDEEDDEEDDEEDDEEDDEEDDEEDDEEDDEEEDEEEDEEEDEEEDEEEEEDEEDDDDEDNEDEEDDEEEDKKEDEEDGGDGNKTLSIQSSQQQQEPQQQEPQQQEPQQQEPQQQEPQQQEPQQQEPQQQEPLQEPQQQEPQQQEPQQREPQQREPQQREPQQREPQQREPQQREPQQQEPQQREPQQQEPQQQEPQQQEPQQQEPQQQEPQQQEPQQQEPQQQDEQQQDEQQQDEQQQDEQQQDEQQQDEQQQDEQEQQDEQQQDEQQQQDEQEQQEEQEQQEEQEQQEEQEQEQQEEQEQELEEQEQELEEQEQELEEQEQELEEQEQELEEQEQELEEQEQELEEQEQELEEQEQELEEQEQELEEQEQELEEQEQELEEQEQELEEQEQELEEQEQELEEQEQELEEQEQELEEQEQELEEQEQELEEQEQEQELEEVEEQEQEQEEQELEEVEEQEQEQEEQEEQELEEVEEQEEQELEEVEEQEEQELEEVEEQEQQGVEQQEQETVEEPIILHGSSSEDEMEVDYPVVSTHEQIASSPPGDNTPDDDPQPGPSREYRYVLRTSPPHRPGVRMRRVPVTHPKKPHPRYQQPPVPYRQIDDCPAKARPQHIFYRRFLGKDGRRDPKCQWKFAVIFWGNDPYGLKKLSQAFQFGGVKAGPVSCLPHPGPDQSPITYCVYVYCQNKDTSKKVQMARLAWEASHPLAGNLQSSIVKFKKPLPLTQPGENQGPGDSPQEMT

[11] = molecular target: Voltage-dependent T-type calcium channel subunit alpha-1H (Homo sapiens, UniProt O95180); format: functional;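 note: channel activity triggered by adding a high calcium stimulation buffer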
Chain of Voltage-dependent T-type calcium channel subunit alpha-1H (O95180 whole entry): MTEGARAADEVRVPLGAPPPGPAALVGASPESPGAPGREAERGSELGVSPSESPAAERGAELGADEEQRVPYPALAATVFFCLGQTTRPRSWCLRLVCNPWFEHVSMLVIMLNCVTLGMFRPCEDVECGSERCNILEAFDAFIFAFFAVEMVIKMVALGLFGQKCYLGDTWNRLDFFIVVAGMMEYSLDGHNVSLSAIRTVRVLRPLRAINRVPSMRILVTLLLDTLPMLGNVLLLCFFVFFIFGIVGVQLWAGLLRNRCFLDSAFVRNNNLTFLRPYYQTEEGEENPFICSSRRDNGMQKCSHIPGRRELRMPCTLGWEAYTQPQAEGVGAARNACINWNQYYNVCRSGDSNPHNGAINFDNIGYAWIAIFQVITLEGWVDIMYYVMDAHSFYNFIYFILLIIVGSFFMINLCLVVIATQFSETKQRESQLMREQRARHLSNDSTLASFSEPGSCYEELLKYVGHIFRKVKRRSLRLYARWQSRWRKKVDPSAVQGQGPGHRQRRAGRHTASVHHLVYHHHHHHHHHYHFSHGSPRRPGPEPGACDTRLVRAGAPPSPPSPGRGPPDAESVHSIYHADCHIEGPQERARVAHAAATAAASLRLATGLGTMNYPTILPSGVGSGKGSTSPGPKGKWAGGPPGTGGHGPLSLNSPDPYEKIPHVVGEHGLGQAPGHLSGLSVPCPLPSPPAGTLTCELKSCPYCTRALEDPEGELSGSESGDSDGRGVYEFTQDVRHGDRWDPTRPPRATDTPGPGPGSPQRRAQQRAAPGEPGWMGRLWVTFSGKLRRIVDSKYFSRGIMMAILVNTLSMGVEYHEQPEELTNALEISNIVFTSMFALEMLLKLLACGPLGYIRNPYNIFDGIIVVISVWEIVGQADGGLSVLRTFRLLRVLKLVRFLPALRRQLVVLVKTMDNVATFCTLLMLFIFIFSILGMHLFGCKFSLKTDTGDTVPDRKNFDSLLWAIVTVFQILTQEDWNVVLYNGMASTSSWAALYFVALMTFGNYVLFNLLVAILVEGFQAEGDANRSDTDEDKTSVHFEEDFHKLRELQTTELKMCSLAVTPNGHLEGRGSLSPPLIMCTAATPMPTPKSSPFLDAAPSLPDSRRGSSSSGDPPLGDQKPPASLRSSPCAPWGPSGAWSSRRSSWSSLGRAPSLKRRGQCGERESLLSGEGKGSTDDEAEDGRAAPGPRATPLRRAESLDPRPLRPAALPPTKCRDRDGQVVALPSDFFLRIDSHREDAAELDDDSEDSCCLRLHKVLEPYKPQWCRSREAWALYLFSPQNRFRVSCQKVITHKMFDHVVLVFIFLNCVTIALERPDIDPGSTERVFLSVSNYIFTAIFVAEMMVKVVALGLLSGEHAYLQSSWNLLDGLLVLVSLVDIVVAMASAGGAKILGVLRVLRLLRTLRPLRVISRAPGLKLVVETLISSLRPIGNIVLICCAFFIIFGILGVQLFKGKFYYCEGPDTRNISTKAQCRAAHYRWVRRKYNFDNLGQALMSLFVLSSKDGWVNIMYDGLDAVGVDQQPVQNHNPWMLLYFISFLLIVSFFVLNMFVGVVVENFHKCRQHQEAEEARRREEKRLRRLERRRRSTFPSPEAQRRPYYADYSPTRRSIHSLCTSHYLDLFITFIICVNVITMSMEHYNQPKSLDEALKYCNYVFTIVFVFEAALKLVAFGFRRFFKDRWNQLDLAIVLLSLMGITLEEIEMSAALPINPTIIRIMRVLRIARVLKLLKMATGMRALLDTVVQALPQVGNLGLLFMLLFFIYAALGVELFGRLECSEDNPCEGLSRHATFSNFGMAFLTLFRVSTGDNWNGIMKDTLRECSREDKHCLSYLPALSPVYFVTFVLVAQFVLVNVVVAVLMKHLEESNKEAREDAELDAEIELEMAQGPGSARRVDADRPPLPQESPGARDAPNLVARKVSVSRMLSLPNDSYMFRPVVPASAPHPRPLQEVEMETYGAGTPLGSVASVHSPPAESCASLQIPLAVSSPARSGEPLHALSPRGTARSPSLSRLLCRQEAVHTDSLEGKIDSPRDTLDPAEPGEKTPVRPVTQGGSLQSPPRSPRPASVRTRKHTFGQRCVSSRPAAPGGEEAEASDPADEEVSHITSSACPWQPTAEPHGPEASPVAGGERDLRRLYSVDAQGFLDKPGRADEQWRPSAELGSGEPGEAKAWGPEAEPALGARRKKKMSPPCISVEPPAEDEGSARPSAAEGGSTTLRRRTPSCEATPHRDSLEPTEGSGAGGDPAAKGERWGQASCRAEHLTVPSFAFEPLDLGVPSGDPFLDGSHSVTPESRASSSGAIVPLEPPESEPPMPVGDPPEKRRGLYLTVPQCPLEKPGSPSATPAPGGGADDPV

CN1CCN(CC/C=C2/c3ccccc3Sc3ccc(S(=O)(=O)N(C)C)cc32)CC1 [THIOTHIXENE]
CC50 [1]: > 40 µM (active) | IC50 [2]: > 20 µM (inactive) | CC50 (Vero [3]): 15.2 µM (active) | IC50 (Vero [4]): > 25 µM (active)

O=C(Nc1ccc2[nH]c(O)nc2c1)c1ccc([N+](=O)[O-])o1
IC50 [5]: 29 µM (inactive) | IC50 (Exodeoxyribonuclease V): > 119 µM (inactive)

CC(C)Cn1c(=O)[nH]c(=O)c2c(C(F)(F)F)cc(-c3ccccc3)nc21
EC50 (HEK293 [6]): > 59.6 µM (inactive) | EC50 (HEK293 [7]): > 59.6 µM (inactive)

Cc1ccc(-c2oc3ccccc3c(=O)c2O)cc1
IC50 [5]: > 119 µM (inactive) | EC50 [8]: > 195 µM (not active) | IC50 (Exodeoxyribonuclease V): > 119 µM (inactive)

CCOc1nss/c1=N\c1ccc2ccccc2c1
IC50 [9]: > 100 µM (inactive)

Cc1cc2nc3c(=O)n(C4CCCCC4)c(=O)[nH]c3nc2cc1N
IC50 [10]: > 50 µM (not active) | AC50 (Keap1/Nrf2): 1.92 µM (active) | AC50 (ORF 73): 27.6 µM (active)

Clc1nss/c1=N\C1=NCCS1
IC50 [9]: > 100 µM (inactive)

CCOC(=O)C1CCCN(C(=O)C2c3ccccc3Oc3ccccc32)C1 (centres undefined)
AC50 (Keap1/Nrf2): > 52 µM (inactive) | EC50 [11]: 38.8 µM (active) | AC50 (ORF 73): 127 µM (active)
